{"source": "patent US20110144022A1", "about": "“Anti-Angiogenic Peptide” (ISTITUTO NAZIONALE PER LA RICERCA SUL CANCRO, priority 2004, published 2011)", "key": {"[1]": {"system": "angiogenesis", "experiment": "Matrigel sponge in vivo angiogenesis assay", "design": "species or system C57B1 mice", "settings": "for effect of anti IL-12 antibody on the anti-angiogenic activity: neutralizing anti mouse IL-12 antibody added to the matrigel mixture", "experimental": "the assay was performed in C57B1 mice as described (3).\nTo verify whether IL-12 was a mediator of AST function, a neutralizing anti mouse IL-12 antibody (Peproteck Inc. London) and respectively an irrelevant anti phage 13 antibody (5 prime, 3 prime Inc. Boulder, Co. 150 ng/ml) were added to the mixture.\nAfter animal sacrifice, pellets were fixed in 4% PAF and paraffin embedded; […] sections were stained with hematoxylin-eosin standard procedure.\nFIG. 1-b: matrigel in vivo angiogenesis assay with AST. Columns show means and standard error of groups comprising six animals each. KS-conditioned medium (KSCM) is the stimulus (control).\nFIG. 1-c: matrigel in vivo angiogenesis assay with peptides.\nA combination of peptides and anti IL-12 Ab was added to the samples containing KSCM as indicated.\nFIG. 2, a-h: standard ematoxylin-eosin staining of the matrigel pellets relative to experiments in FIG. 1-c."}, "[2]": {"system": "polymorphonucleate (PMN)", "experiment": "Neutrophil (PMN) chemotaxis assay with IL-8 as chemoattractant", "type": "cell-based", "settings": "CXCR1 and CXCR2-agonist and IL8 as chemoattractants", "experimental": "The assay was conducted in 48 wells chambers (Costar Nucleopore, Milan, Italy) according to Falk (4). The lower compartment of each chamber was filled with 27 μL of chemoattractant (IL-8, 50 ng/ml) in RPMI 0.1% BSA (SFM). Serum-free medium (SFM) was used for spontaneous migration without stimulus. The upper compartment was filled with 50 μL of polymorphonucleate (PMN) suspension in SFM (3×10^6 cells/ml); each experimental point was performed in sextuplicate. Chambers were incubated at 37° C. in 5% CO2 in humidified atmosphere for 45 minutes. Filters were removed and the cells fixed in 100% ethanol and stained with toluidine blue. The migrated cells were quantified by scanning of the filter surface and by densitometry of blue staining by NIH Imaging Analysis Software.\nFIG. 3: PMN chemotaxis. Densitometry of migrated cells. IL-8 represents the stimulus in each sample, to which either AST or relevant peptides are added."}, "[3]": {"system": "KS-imm cells", "experiment": "Xenotransplant of Kaposi sarcoma (KS-imm) tumor cells in nude mice", "type": "in vivo, CD1 nude mice", "settings": "single administration three days before cell injection", "experimental": "CD1 nude mice were injected in the flank with 5 million KS-imm cells and split in four groups: one was injected peri-tumorally with 2.5 μg AST (Calbiochem, La Jolla, Calif.) in 100 μl PBS-BSA, a control group was injected with vehicle alone, a third group with 2.5 mg of peptide SEQ ID NO:1 or a control peptide. Mice were sacrificed at day 31."}}, "data": [{"substance": "angiostatin", "values": [{"measurement": "effect of anti IL-12 antibody on the anti-angiogenic activity", "setting": "[1]", "value": "inhibited by and antibody anti IL-12"}]}, {"substance": "HNRTPENFPCKNL (listed as Homo sapiens) [peptide SEQ ID NO:1, 13mer from Kringle 3 of angiostatin, starting from position 307 of human plasminogen]", "values": [{"measurement": "anti-angiogenic activity in matrigel sponges (hemoglobin quantification)", "setting": "[1]; KS-conditioned medium (KSCM) as stimulus, compared with angiostatin", "value": "more active than angiostatin"}, {"measurement": "angiogenesis inhibition by hematoxylin-eosin stain of matrigel pellets", "setting": "[1]; histology of matrigel sponges", "value": "potent angiogensis inhibition"}, {"measurement": "local cellular infiltration in matrigel pellets", "setting": "[1]; histology of matrigel sponges", "value": "drastically reduced"}, {"measurement": "effect of anti IL-12 antibody on the anti-angiogenic activity", "setting": "[1]", "value": "inhibited by and antibody anti IL-12"}, {"measurement": "activity in neutrophil chemotaxis assay (inhibition of migration)", "setting": "[2]", "value": "significantly higher compared to other angiostatin peptides"}, {"measurement": "tumor growth", "setting": "[3]", "value": "able to diminish tumor growth with respect to angiostatin"}]}]}
